Measurements taken from patent publication US20120065126A1, “Pharmaceutical Compositions Containing Antifungal Peptides” (BASF SE, priority 2009, published 2012).

Tests used:
Malassezia furfur = assay: Growth inhibition at equal concentrations by weight of P18, zinc pyrithione, climbazole, ketoconazole (CFU); type: cell-based
Description: The studies described hereinafter were conducted on the Malassezia furfur strain DSM 6170.
For this purpose, the procedure was as follows:
The growth test was effected as follows: a shake culture containing M472 Pityrosporum medium was inoculated with M. furfur and incubated with shaking at 30° C. and 200 rpm overnight.
A 96-well microtiter plate was filled with 100 μl per well of M472 Pityrosporum medium and inoculated with M. furfur suspension from the overnight culture. The M. furfur suspension was adjusted at the start of the experiment to an optical density, measured at 600 nm, of 0.02. The concentrates of the inhibitor solutions were 1 mM in DMSO for P18 peptide and 10 mM in DMSO for zinc pyrithione, ketoconazole and climbazole. The final DMSO concentration was kept the same in all experiments.
The following growth was compared by measuring the optical density: • M. furfur suspension and addition of the P18 solution with a final concentration of 50 μM (corresponds to 0.0115% (w/w)) • M. furfur suspension and addition of the zinc pyrithione (ZPT) solution with a final concentration of 362 μM (comparison to the mixture containing 50 μM P18 peptide) • M. furfur suspension and addition of the ketoconazole solution with a final concentration of 216 μM (comparison to the mixture containing 50 μM P18 peptide) • M. furfur suspension and addition of the climbazole solution with a final concentration of 390 μM (comparison to the mixture containing 50 μM P18 peptide)
The microtiter plate was incubated with shaking at 30° C.
[…] After incubation over the course of 6 days, the colonies on the plate were counted. The CFU was determined in order to rule out any influence of the biphasic medium, and also the growth form of M. furfur, on the optical density. The experiments were each conducted in double determination, at least in two independent experiments.

[1] = test system: Candida albicans (DSM 11948); assay: Short-term effect (CFU); type: cell-based
Description: For this purpose, the procedure was as follows.
YM growth medium (Becton, Dickinson and Company, Sparks, USA) 3 g of yeast extract 3 g of malt extract 5 g of peptone 10 g of dextrose make up to 1 liter, set pH 6.2
The growth test was effected as follows: 5 ml of YM medium were inoculated with C. albicans and incubated at 30° C. and 200 rpm overnight.
1.5 ml reaction vessels were filled with 1 ml each of YM medium and inoculated with the C. albicans suspension of the overnight culture. The resulting C. albicans suspension was set at the start of the experiment to an optical density, measured at 600 nm, of 0.1. The concentration of the peptide solution in water or ZPT solution (zinc pyrithione, >96%, Sigma Aldrich) dissolved in DMSO was 2% (w/w).
The following growth was compared: • C. albicans suspension and addition of P18 peptide with a final concentration in the 1.5 ml reaction vessel of 50 ppm after 5 minutes, 10 minutes, 20 minutes and 60 minutes • C. albicans suspension and addition of P18 peptide with a final concentration in the 1.5 ml reaction vessel of 100 ppm after 5 minutes, 10 minutes, 20 minutes and 60 minutes • C. albicans suspension and addition of P18 peptide with a final concentration in the 1.5 ml reaction vessel of 200 ppm after 5 minutes, 10 minutes, 20 minutes and 60 minutes • C. albicans suspension and addition of P18 peptide with a final concentration in the 1.5 ml reaction vessel of 500 ppm after 5 minutes, 10 minutes, 20 minutes and 60 minutes • C. albicans suspension and addition of P18 peptide with a final concentration in the 1.5 ml reaction vessel of 1000 ppm after 5 minutes, 10 minutes, 20 minutes and 60 minutes • C. albicans suspension and addition of ZPT with a final concentration in the 1.5 ml reaction vessel of 50 ppm after 5 minutes, 10 minutes, 20 minutes and 60 minutes • C. albicans suspension and addition of ZPT with a final concentration in the 1.5 ml reaction vessel of 100 ppm after 5 minutes, 10 minutes, 20 minutes and 60 minutes • C. albicans suspension and addition of ZPT with a final concentration in the 1.5 ml reaction vessel of 200 ppm after 5 minutes, 10 minutes, 20 minutes and 60 minutes • C. albicans suspension and addition of ZPT with a final concentration in the 1.5 ml reaction vessel of 500 ppm after 5 minutes, 10 minutes, 20 minutes and 60 minutes • C. albicans suspension and addition of ZPT with a final concentration in the 1.5 ml reaction vessel of 1000 ppm after 5 minutes, 10 minutes, 20 minutes and 60 minutes
The 1.5 ml reaction vessels were incubated at room temperature.
After the incubation times specified, the colony forming units (CFU) were determined by streaking 1 μl of each of the suspensions diluted in 20 μl of YM medium and, after incubation for 2 days, counting the colonies.

Substance	Colony forming units after the incubation time specified ([1]; 50 ppm, 5 minutes)	Colony forming units after the incubation time specified ([1]; 50 ppm, 10 minutes)	Colony forming units after the incubation time specified ([1]; 50 ppm, 20 minutes)	Colony forming units after the incubation time specified ([1]; 50 ppm, 60 minutes)	Colony forming units after the incubation time specified ([1]; 100 ppm, 5 minutes)	Colony forming units after the incubation time specified ([1]; 100 ppm, 10 minutes)	Colony forming units after the incubation time specified ([1]; 100 ppm, 20 minutes)	Colony forming units after the incubation time specified ([1]; 100 ppm, 60 minutes)	Colony forming units after the incubation time specified ([1]; 200 ppm, 5 minutes)	Colony forming units after the incubation time specified ([1]; 200 ppm, 10 minutes)	Colony forming units after the incubation time specified ([1]; 200 ppm, 20 minutes)	Colony forming units after the incubation time specified ([1]; 200 ppm, 60 minutes)	Colony forming units after the incubation time specified ([1]; 500 ppm, 5 minutes)	Colony forming units after the incubation time specified ([1]; 500 ppm, 10 minutes)	Colony forming units after the incubation time specified ([1]; 500 ppm, 20 minutes)	Colony forming units after the incubation time specified ([1]; 500 ppm, 60 minutes)	Colony forming units after the incubation time specified ([1]; 1000 ppm, 5 minutes)	Colony forming units after the incubation time specified ([1]; 1000 ppm, 10 minutes)	Colony forming units after the incubation time specified ([1]; 1000 ppm, 20 minutes)	Colony forming units after the incubation time specified ([1]; 1000 ppm, 60 minutes)	other results
H-KWKLFKKIPKFLHLAKKF-NH2 [P18, H-KWKLFKKIPKFLHLAKKF-NH2]	986 ± 280 CFU	944 ± 209 CFU	954 ± 14 CFU	518 ± 82 CFU	718 ± 116 CFU	628 ± 112 CFU	454 ± 127 CFU	25 ± 0 CFU	242 ± 122 CFU	72 ± 2 CFU	29 ± 2 CFU	1 ± 1 CFU	39 ± 1 CFU	5 ± 6 CFU	1 ± 1 CFU	0 ± 0 CFU	10 ± 2 CFU	1 ± 2 CFU	0 ± 0 CFU	0 ± 0 CFU	Colony forming units (CFU) (Malassezia furfur; final conc. 50 μM (0.0115% (w/w)), 24 h): 1 ± 1 CFU; Colony forming units (CFU) (Malassezia furfur; final conc. 50 μM (0.0115% (w/w)), 40 h): 0 ± 0 CFU
zinc pyrithione [ZPT]	830 ± 190 CFU	1096 ± 51 CFU	986 ± 20 CFU	982 ± 93 CFU	809 ± 100 CFU	1048 ± 74 CFU	806 ± 105 CFU	762 ± 212 CFU	676 ± 204 CFU	906 ± 331 CFU	882 ± 190 CFU	711 ± 125 CFU	863 ± 35 CFU	832 ± 192 CFU	710 ± 71 CFU	617 ± 134 CFU	806 ± 20 CFU	700 ± 153 CFU	550 ± 88 CFU	482 ± 69 CFU	Colony forming units (CFU) (Malassezia furfur; final conc. 362 μM, 24 h): 60 ± 40 CFU; Colony forming units (CFU) (Malassezia furfur; final conc. 362 μM, 40 h): 26 ± 7 CFU; Inhibition in words ([1]; 50-1000 ppm, up to 60 minutes): no significant inhibition
